{"source": "patent US20030005484A1", "about": "“Microbiocidal and pesticidal aromatic aldehydes” (ProGuard, Inc., priority 1994, published 2003)", "key": {"[1]": {"test_system": "grape phylloxera eggs", "test": "whole plant or invertebrate", "experimental": "Mixed age groups of 60 grape phylloxera eggs were established on filter paper (Whatman #1, 5.5 cm circles) in 50×9 mm sealed plastic petri dishes treated with 100 μl of solution. A selected concentration of a test formulation of 400 μl was added to the filter disk and the dish closed with the petri dish cover and placed in a plastic container box. After 6 hours, the box was placed in an environmental chamber at 24° C. in the dark. The eggs were placed in groups of 10. After one week, the percentage of hatch is determined. In an initial test, doses from 0.1 to 25,000 ppm cinnamic aldehyde in 6% NaHCO3 and 2% Tween 80 were evaluated with a single group of eggs at each dosage. Three replicates of the experiment were performed. […] LD50 and LD95 were determined by probit analysis.\nGrape phylloxera eggs were treated with cinnamaldehyde (CNMA) in a 6% NaHCO3, 2% Tween-80 formulation in a laboratory bioassay. Mortality of the eggs was indicated by failure of the egg shell to split. […] Leaves of one-year-old greenhouse Vitis vinifera cultivar Merlot vines heavily infested with grape phylloxera were sprayed to run-off with a CNMA treatment using the same formulation. […] Roots taken from plants 1, 2 and 5 weeks after CNMA or other treatments were placed in Petri dish bioassays and infested with untreated phylloxera eggs.\nEggs of various age classes were placed on Whatman #1 filter paper moistened with enough treatment solution to form a meniscus about halfway up the sides of the eggs. The pieces of filter paper with eggs were maintained in sealed plastic Petri dishes at […] until they were 7 days old and then hatched individuals were counted. Hatch was considered successful if the […]"}, "[2]": {"test_system": "melon aphid (Aphis gossypii Glover)", "test": "melon aphid on chrysanthemum leaves, 5% HCA formulations", "type": "in vivo", "settings": "5% HCA (emulsion with 1% Tween 20 in water, or microencapsulated); 24 hours", "experimental": "For each test, treatment cartons received the active ingredient as a 5% aqueous emulsion or as microcapsules in either beeswax or carnauba wax. The negative control was a water only treatment. Sprays of each treatment were applied using a laboratory spray tower calibrated to spray the field equivalent of 113 liters per acre. The paper carton arenas were maintained at room temperature. Experimental cartons were examined at 24 hours post-treatment and % mortality determined (see FIG. 3). Every treatment regimen killed 100% of the melon aphids at 24 hours."}, "[3]": {"settings": "25° C; cited from earlier work"}, "[4]": {"test_system": "thrips insects (Frankliniella occidentalis)", "test": "residual activity on filter paper against thrips", "type": "in vivo", "settings": "residue on filter paper, rehydrated 24 and 72 hours after spraying; thrips mortality after one hour", "experimental": "In the first experiment, two ml of two concentrations of CNMA (0.3 and 1%) were sprayed on filter paper (Whatman). As a negative control, two ml of water also were sprayed on filter paper. Twenty-four hours later, two ml of water were sprayed on treatment and control filter paper, which were then dried for 30 min. Approximately 30 thrips insects (Frankliniella occidentalis) were introduced and the number of F. occidentalis were observed after one hour. Mean mortality was calculated for each treatment.\nAfter 72 hours, the treatment filter papers were flipped over and only the negative control filter paper and the filter paper treated with 1% CNMA were sprayed with 2 ml of water and allowed to dry for 30 minutes. Approximately 30 thrips were introduced to the two treated filter papers and after one hour the number of dead F. occidentalis were observed and the mean mortality calculated for each treatment. A similar assay was conducted using a-hexyl cinnamaldehyde. Mean mortality was higher for rehydrated filter papers compared to non-rehydrated filter papers over time."}, "[5]": {"test_system": "powdery mildew", "test": "powdery mildew on roses, disease rating / MPDC after foliar spray", "type": "in vivo, Sphaerotheca pannosa", "settings": "for Powdery Mildew, Post (rating): ~100 ml spray; for Mean % Disease Control, rose powdery mildew: single 100 ml foliar spray", "experimental": "Each formulation is evaluated for its effect on specific pests and/or plant host using any of the compounds of formula (1) as well as other components of the formulation such as Tween 80 and/or sodium bicarbonate, with the combination and effective amount of each component adapted for a particular application to minimize toxicity while maintaining or increasing the antipathogenic effect of the formulation. The effective amount of each component may be determined by systematically varying the amount of that component in a test formulation, treating a plant of interest with the test formulation, and monitoring the level of pest infestation compared to an untreated control plant. An effective amount of a test component is identified as the amount that controls the growth of the pathogen on the plant host, thus reducing the disease rating of the plant. The mean percentage disease […] (MPDC) can be calculated for each particular application. MPDC is defined by the formula: [formula] Eight cultivars of rose were tested to investigate the effect of a cinnamic aldehyde/NaHCO3 formulation on rust and spores. The cultivars used included Moss unnamed (Moss), […], Rosette Delize (Hybrid Tea), Rosa Rugosa Rubra (Rugosa), Abel Morrison (Hybrid perpetual), John Laing, Betty Prior, and Rose de Roi. […] The Hybrid Tea and Hybrid perpetual were rated 3 and the Rugosa was rated 1. […] Control plants received no treatment. […] Moreover, the treatment appeared to have induced systemic resistance. […] Plants were an average of 0.86 m apart. […] Controls were untreated plants. […] Weekly reviews were made of the various plants. […] of infected rose in dedicated experimental rose gardens were used. Four Mrs. John Laing (Hybrid perpetual) and two Marchionese of Londonderry (Hybrid perpetual) rose plants were treated with one of two formulations of coniferyl aldehyde. […] The first two Mrs. […] Mrs. […] Both Marchionese of Londonderry plants (P5 and P6) were rated 5 for powdery mildew and rust after Paulus and Nelson (supra). Two treatment formulae were used for this trial. […] Control plants were sprayed with water alone. The change in the rating from pre-treatment to post-treatment was calculated as the mean percentage of disease control (MPDC) as described herein. A three treatment experiment with cinnamic aldehyde formula, coniferyl aldehyde formula and combined cinnamic and coniferyl aldehyde formula was carried out on field grown roses known to be susceptible to powdery mildew. The plants were blocked by variety before fungicide treatments and were randomized as to the plants. Two varieties were used in each of the three experiments described below. […] In experiment 3 Comte de Chambord (Portland) and Madame Pierre Oger (Bourbon) were used. In Experiment 1, the effect of cinnamic aldehyde alone and in combination with Tween 80 and/or NaHCO3 component was evaluated in experiment 2 the effect of coniferyl aldehyde alone and in combination with Tween 80 and/or NaHCO3 was evaluated and in experiment 3 a combination of cinnamic aldehyde and coniferyl aldehyde with Tween 80 and/or NaHCo3 was evaluated. […] See Table 3 for the treatment protocol; formula 1 was used for these experiments. […] Plants were evaluated using the Paulus/Nelson scale just prior to and four days after treatment. […] Moreover, cinnamic aldehyde, coniferyl aldehyde, Tween 80 and NaHCO3 are used in the food industry and there is likely to be little toxicological risk to the consumer or handler from any horticultural or food crop sprayed in this way. Similarly, as these chemicals leave no toxic residue, there is little chance of any detrimental effect on the wider environment, and their use is likely to be compatible with current biological control methods such as beneficial insects and/or microorganisms."}, "[6]": {"test_system": "rust", "test": "rust (and spores) on roses, disease rating / MPDC after foliar spray", "type": "in vivo, Phragmidrium mucronatrum", "experimental": "Each formulation is evaluated for its effect on specific pests and/or plant host using any of the compounds of formula (1) as well as other components of the formulation such as Tween 80 and/or sodium bicarbonate, with the combination and effective amount of each component adapted for a particular application to minimize toxicity while maintaining or increasing the antipathogenic effect of the formulation. The effective amount of each component may be determined by systematically varying the amount of that component in a test formulation, treating a plant of interest with the test formulation, and monitoring the level of pest infestation compared to an untreated control plant. An effective amount of a test component is identified as the amount that controls the growth of the pathogen on the plant host, thus reducing the disease rating of the plant. The mean percentage disease […] (MPDC) can be calculated for each particular application. MPDC is defined by the formula: [formula] Eight cultivars of rose were tested to investigate the effect of a cinnamic aldehyde/NaHCO3 formulation on rust and spores. The cultivars used included Moss unnamed (Moss), […], Rosette Delize (Hybrid Tea), Rosa Rugosa Rubra (Rugosa), Abel Morrison (Hybrid perpetual), John Laing, Betty Prior, and Rose de Roi. […] The Hybrid Tea and Hybrid perpetual were rated 3 and the Rugosa was rated 1. […] Control plants received no treatment. […] Moreover, the treatment appeared to have induced systemic resistance. […] Plants were an average of 0.86 m apart. […] Controls were untreated plants. […] Weekly reviews were made of the various plants. […] Six cultivars of infected rose in dedicated experimental rose gardens were used. Four Mrs. John Laing (Hybrid perpetual) and two Marchionese of Londonderry (Hybrid perpetual) rose plants were treated with one of two formulations of coniferyl aldehyde. […] The first two Mrs. […] Mrs. […] Both Marchionese of Londonderry plants (P5 and P6) were rated 5 for powdery mildew and rust after Paulus and Nelson (supra). Two treatment formulae were used for this trial. […] Control plants were sprayed with water alone. The change in the rating from pre-treatment to post-treatment was calculated as the mean percentage of disease control (MPDC) as described herein."}, "[7]": {"test_system": "aphids", "test": "aphids on sprayed roses", "type": "in vivo", "settings": "plants P3 (T2) and P4 (T1), each with >35 insects before treatment"}, "[8]": {"settings": "1000 ppm in 6% NaHCO3, 2% Tween 80, 7 days"}, "[9]": {"settings": "T1 low dose: 5 g coniferyl aldehyde, 10 g Tween 80, 80 g NaHCO3 per 1000 g, plants P1, P4, P6"}, "[10]": {"settings": "T2 high dose: 100 g coniferyl aldehyde, 20 g Tween 80, 120 g NaHCO3 per 1000 g, plants P2, P3, P5"}, "[11]": {"settings": "baseline before T1 low dose, plants P1, P4, P6"}, "[12]": {"settings": "baseline before T2 high dose, plants P2, P3, P5"}}, "note": "Values joined by “and” are separate entries in the source; they are usually repeats but may differ in a detail not shown here. Equal values may be shown once.", "data": [{"smiles": "CCCCCC/C(C=O)=C/c1ccccc1", "note": "[HCA, 2-hexyl-3-phenyl-2-propenal]", "values": [{"measurement": "egg hatch failure / mortality at 560 ppm", "setting": "[1]; 560 ppm, egg tests with CNMA analogs", "value": "no hatch failure at 560 ppm; rapid"}, {"measurement": "mortality at 100 ppm", "setting": "[1]; Daktulosphaira vitifoliae, read-out: rapid nymphal mortality", "value": 100, "unit": "%"}, {"measurement": "melon aphids killed", "setting": "[2]", "value": 100, "unit": "%"}, {"measurement": "vapor pressure", "setting": "[3]", "value": "70×10^−5 mm Hg"}, {"measurement": "residual activity", "setting": "[4]", "value": "have residual activity"}]}, {"smiles": "CCN(CC)c1cccc(C)c1", "note": "[N,N-diethyl-m-toluamine, reference compound]", "values": [{"measurement": "vapor pressure", "setting": "[3]", "value": "167×10^−5 mm Hg"}]}, {"smiles": "COc1cc(/C=C/C=O)ccc1O", "note": "[coniferyl aldehyde]", "values": [{"measurement": "eggs hatched incompletely (IH)", "setting": "[1]; [8]", "value": 85, "unit": "%"}, {"measurement": "nymphs that died in the shell (DIS)", "setting": "[1]; [8]", "value": 12, "unit": "%"}, {"measurement": "nymphs that died in the shell (DIS)", "setting": "[1]; 5000 ppm aldehyde in 6% NaHCO3, 2% Tween 80, 7 days", "value": 10, "unit": "%"}, {"measurement": "Powdery Mildew, Post (rating)", "setting": "[5]; [9]", "value": "2 (2=26-50) and 1 (1=1-25)"}, {"measurement": "Powdery Mildew, Change in rating", "setting": "[5]; [10]", "value": "3 and 4"}, {"measurement": "Powdery Mildew, Post (rating)", "setting": "[5]; [10]", "value": "2 (2=26-50) and 1 (1=1-25)"}, {"measurement": "Mean % Disease Control, rose powdery mildew", "setting": "[5]; aldehyde 5 g (mixture 2.5 g + 2.5 g) with NaHCO3 (80 g), four days", "value": 44, "unit": "%"}, {"measurement": "Mean % Disease Control, rose powdery mildew", "setting": "[5]; aldehyde 5 g (mixture 2.5 g + 2.5 g) with T80 (10 g), four days", "value": 44, "unit": "%"}, {"measurement": "Mean % Disease Control, rose powdery mildew", "setting": "[5]; aldehyde 5 g (mixture 2.5 g + 2.5 g) with T80 + NaHCO3 (formulas G, M, Q), four days", "value": 81, "unit": "%"}, {"measurement": "Mean % Disease Control, rose powdery mildew", "setting": "[5]; aldehyde 5 g (mixture 2.5 g + 2.5 g), no additive, rated four days after treatment", "value": 56, "unit": "%"}, {"measurement": "Powdery Mildew, Pre (rating)", "setting": "[5]; [11]", "value": "3 (3=51-75) and 4 (4=76-90)"}, {"measurement": "Powdery Mildew, Pre (rating)", "setting": "[5]; [12]", "value": "5 (5=>90% total leaves per bush)"}, {"measurement": "Rust (rating), Change", "setting": "[6]; [9]", "value": "1 and 2"}, {"measurement": "Rust (rating), Change", "setting": "[6]; [10]", "value": "3 and 4"}, {"measurement": "Rust (rating), Post", "setting": "[6]; [10]", "value": "2 (2=26-50) and 1 (1=1-25)"}, {"measurement": "Rust (rating), Pre", "setting": "[6]; [11]", "value": "3 (3=51-75) and 4 (4=76-90)"}, {"measurement": "Rust (rating), Pre", "setting": "[6]; [12]", "value": "5 (5=>90% total leaves per bush)"}, {"measurement": "aphids on treated rose plants", "setting": "[7]", "value": "eliminated"}]}]}
